Results published in patent US10806794B2, “Protease inhibitors having enhanced features” (priority 2008, dated 2020).
Several values for one entry are separate records, joined by “and”; a condition that tells them apart may be missing. Equal values may be shown once. Read-outs that look alike come from different tables or passages of the source.

Tests used:
HIV-1RF = assay: Anti-HIV cytoprotection in CEM-SS cells infected with HIV-1RF (XTT); format: cell-based
Experimental: To evaluate whether conjugated protease inhibitors retain the ability to protect against HIV-1 infection, CEM-SS cells infected with the RF strain of HIV-1 were treated with test compounds for six days, and then cell viability was monitored using the tetrazolium dye XTT. […] A value for Therapeutic Index (TI) was calculated as TC50/EC50.

HIV-1BaL = assay: HIV-1 p24 levels after infection of fresh human monocyte/macrophages; format: cell-based
Experimental: Mononuclear cells were isolated from fresh human peripheral blood cells by Ficoll-Hypaque density gradient by centrifugation at 600 g for 30 minutes. Banded peripheral blood mononuclear cells (PBMCs) were aspirated from the resulting interface and washed with phosphate buffered saline by low speed centrifugation. […] Cells were allowed to attach for 2 to 12 h at 37° C., then washed with Dulbecco's phosphate buffered saline (DPBS). Monocyte-macrophage monolayer formation was induced by incubation in growth medium (RPMI 1640 medium supplemented with 10% fetal bovine serum, 2 mmol/L L-glutamine, 100 Units/mL penicllin and 10 μg/mL streptomycin) for 7 days. Residual PBMCs were removed by washing the cell monolayers with DPBS. After washing, test compound diluted in growth medium was added to cells. Immediately following test compound addition, HIV-1 virus was added to the cells at multiplicity of infection (MOI)=0.05-0.10. After 7 days in culture, HIV-1 replication was quantified by ELISA measurement of cell-free HIV-1 viral capsid protein (p24) in the tissue culture supernatant of treated monocyte-macrophage monolayers. ELISA to quantify p24 was performed according to manufacturer's instructions (Perkin Elmer, Waltham, Mass.). The quantity of free HIV-1 p24 antigen in the sample was determined by comparing its absorbance at 490 nm to that of control standards.
Fresh human monocytes were infected with the BaL strain of HIV-1 in the presence of test compounds. After seven days in culture, HIV-1 replication was evaluated by measurement of HIV-1 viral capsid protein (p24) in the tissue culture supernatant (Table 7). […] A TI was calculated as described above using TC50 values derived from cell toxicity data in response to test compounds in the absence of viral infection.

HIV-1Ba-L = assay: Anti-HIV-1 activity in monocyte-derived dendritic cells (reverse transcriptase activity); format: cell-based
Experimental: Freshly separated human PBMCs from a single donor were suspended in DPBS at 4×10^6 cells/mL and incubated in a 75 cm^2 cell culture flask for 90 minutes at 37° C., 5% CO2. Non-adherent cells were removed by washing with DPBS. Differentiation to dendritic cells was induced by 7 day incubation in RPMI 1640 medium supplemented with 10% fetal bovine serum, 2 mmol/L L-glutamine, 25 mM HEPES, 100 Units/mL penicllin, 10 μg/mL streptomycin, 50 ng/mL recombinant human granulocyte-macrophage-colony stimulating factor (GM-CSF), and 50 ng/mL recombinant human Interleukin (IL)-4 at 37° C., 5% CO2. The cells were further incubated for two days in the same cytokine cocktail supplemented with 10 ng/mL lipopolysaccharide (LPS). The monocyte-derived dendritic cells were then suspended at 10×10^6 cells/mL in complete medium (RPMI 1640 medium supplemented with 10% fetal bovine serum, 2 mmol/L L-glutamine, 25 mM HEPES, 100 Units/mL penicllin, 10 μg/mL streptomycin) and infected for 2 h at 37 C, 5% CO2 with HIV-1Ba-L at MOI=50-150 TCID50. […] Compound diluted in complete medium was added to cells. After seven days in culture, HIV-1 replication was quantified by measuring HIV-1 reverse transcriptase activity in cell-free supernatants using a standard radioactive tritiated thymidine triphosphate (TTP) polymerization incorporation assay. For each reaction, 1 μL of TTP (1 Ci/mL) was combined with 4 μL of dH2O, 2.5 μL of poly rA and oligo dT (0.5 mg/mL and 1.7 Units/mL, respectively), and 2.5 μL reaction buffer (125 μL 1 mol/L EGTA, 125 μL dH2O, 125 μL 20% Triton X-100, 50 μL 1 mol/L Tris, pH 7.4, 50 μL 1 mol/L DTT, 40 μL 1 mol/L MgCl2), then 10 μL of the resulting mixture was combined with 15 µL of virus-containing supernatant in a round-bottom microtiter plate and the plate incubated at 37° C. in a humidified incubator for 90 minutes. Following incubation, 10 μL of the reaction volume was spotted onto a DEAD filter mat, then washed 5×5 min with 5% sodium phosphate buffer, 2×1 minute in distilled water, 2×1 minute in 70% ethanol, then air dried. The filter mat was incubated with Opti-Fluor O scintillation fluid, and radioactivity quantified using a Wallac 1450 Microbeta Trilux liquid scintillation counter.

PBMCs [1] = assay: PBMC cytotoxicity (XTT); format: cell-based, human; conditions: 7 days
Experimental: Mononuclear cells were isolated from fresh human peripheral blood cells by Ficoll-Hypaque density gradient by centrifugation at 600 g for 30 minutes. Banded peripheral blood mononuclear cells (PBMCs) were aspirated from the resulting interface and washed with phosphate buffered saline by low speed centrifugation. Cell viability was evaluated by Trypan Blue dye exclusion. […] Plates were incubated at 37° C., 5% CO2 for 7 days prior to cytotoxicity evaluation. XTT measurement for cytotoxicity.

PBMCs [2] = assay: PBMC macromolecule synthesis (tritiated precursor incorporation); format: cell-based, human; conditions: for Thymidine Incorporation (PBMC) TC50: DNA synthesis; for Uridine Incorporation (PBMC) TC50: RNA synthesis; for Leucine Incorporation (PBMC) TC50: protein synthesis
Experimental: Cellular macromolecule synthesis was evaluated using tritiated precursor incorporation assays. PBMCs (5×10^4 cells/well) were cultured in the presence or absence of test compound for 7 days at 37 C, 5% CO2 in a 96-well microtiter plate. On day 6 of the incubation, 1 uCi of [methyl-3H]-thymidine for DNA synthesis, [5-3H]-uridine for RNA synthesis, or [3,4,5-3H]-leucine for protein synthesis was added to compound-treated cells, and the plate was further incubated for 16 hours. The cells were transferred to a glass fiber filtermat using an Inotech cell harvester. The filtermats were washed with distilled water then sealed in a bag with scintillation fluid. Incorporated radioactivity was measured using a Wallac scintillation counter.

[3] = Metabolic stability in human liver microsomes; conditions: human liver microsomes, 3 μM;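 as to t1/2: microsomal protein 0.5 mg/mL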
Procedure, shortened: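 Substrate depletion: compounds at 3 μM final with pooled mixed-sex human liver microsomes (0.5 mg/mL) in 0.1 M phosphate pH 7.4 at 37 °C. Remaining parent quantified by LC-MS/MS.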

CYP2D6 = CYP2D6 (Homo sapiens (Human), UniProt P10635); assay: CYP450 inhibition in human liver microsomes: CYP2D6; conditions: read-out: CYP2D6 IC50 Dextromethorphan; probe substrate dextromethorphan
CYP2D6, sequence (P10635 whole entry): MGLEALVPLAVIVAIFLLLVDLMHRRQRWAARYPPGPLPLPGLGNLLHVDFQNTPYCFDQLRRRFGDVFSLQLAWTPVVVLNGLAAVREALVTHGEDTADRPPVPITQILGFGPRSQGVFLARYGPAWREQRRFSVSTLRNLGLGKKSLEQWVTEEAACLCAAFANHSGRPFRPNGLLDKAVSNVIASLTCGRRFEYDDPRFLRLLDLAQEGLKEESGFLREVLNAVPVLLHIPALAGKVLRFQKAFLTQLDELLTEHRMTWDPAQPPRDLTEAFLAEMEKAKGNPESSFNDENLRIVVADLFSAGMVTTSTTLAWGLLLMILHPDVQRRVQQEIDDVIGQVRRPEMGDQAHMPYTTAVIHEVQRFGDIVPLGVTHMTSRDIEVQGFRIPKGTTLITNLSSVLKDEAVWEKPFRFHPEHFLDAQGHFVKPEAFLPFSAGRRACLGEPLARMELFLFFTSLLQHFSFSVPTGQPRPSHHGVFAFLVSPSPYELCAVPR

[4] = seven days, p24, read-out: Monocyte/HIV-1BaL EC50
[5] = dendritic cells, first determination, read-out: EC50 First
[6] = dendritic cells, mean of three, read-out: Mean EC50
[7] = dendritic cells, second determination, read-out: EC50 Second
[8] = dendritic cells, third determination, read-out: EC50 Third
[9] = six days, XTT, read-out: CEM-SS/HIV-1RF EC50 ± SD

Row | Structure (SMILES) | EC50 (HIV-1RF; Human immunodeficiency virus 1, CEM-SS, 144 h, read-out: CEM-SS/HIV-1RF EC50 ± SD, six days, XTT) [nM] | EC50 (HIV-1RF; read-out: CEM-SS/HIV-1RF EC50 ± SD, six days, XTT) | EC50 (HIV-1BaL; Human immunodeficiency virus 1, Monocyte, 168 h, read-out: Monocyte/HIV-1BaL EC50, seven days, p24) [nM] | EC50 (HIV-1Ba-L; Human immunodeficiency virus 1, Dendritic cell, read-out: EC50 First, dendritic cells, first determination) [nM] | EC50 (HIV-1Ba-L; Human immunodeficiency virus 1, Dendritic cell, read-out: EC50 Second, dendritic cells, second determination) [nM] | EC50 (HIV-1Ba-L; Human immunodeficiency virus 1, Dendritic cell, read-out: EC50 Third, dendritic cells, third determination) [nM] | EC50 (HIV-1Ba-L; Human immunodeficiency virus 1, Dendritic cell, read-out: Mean EC50, dendritic cells, mean of three) [nM] | XTT (PBMC) TC50 (PBMCs [1]) [µM] | Thymidine Incorporation (PBMC) TC50 (PBMCs [2]) [µM] | Uridine Incorporation (PBMC) TC50 (PBMCs [2]) [µM] | Leucine Incorporation (PBMC) TC50 (PBMCs [2]) [µM] | EC50 (HIV-1BaL; [4]) [nM] | CLint ± SEM [3] [μL/min/mg protein] | t1/2 [3] [min] | EC50 (HIV-1Ba-L; [5]) [nM] | EC50 (HIV-1Ba-L; [6]) [nM] | EC50 (HIV-1Ba-L; [7]) [nM] | EC50 (HIV-1Ba-L; [8]) [nM] | EC50 (HIV-1RF; [9]) | IC50 (CYP2D6) [µM]
1 | CC(C)CN(C[C@@H](O)[C@H](Cc1ccccc1)NC(=O)O[C@H]1CO[C@H]2OCC[C@H]21)S(=O)(=O)c1ccc(N)cc1 [Darunavir, reference compound] | < 0.7 | < 0.66 nM and 1 nM | < 20 | 2 | 3 | 3 | 2.7 | 328.4 | 184.3 | 189.3 | 258.3 |  |  |  |  |  |  |  |  | 
2 | COCCOCCOCCOc1ccc(C[C@H](NC(=O)O[C@H]2CO[C@H]3OCC[C@H]32)C(O)CN(CC(C)C)S(=O)(=O)c2ccc(N)cc2)cc1 (stereo partly shown) [mPEG3-O-Darunavir] |  |  |  |  |  |  |  | >400.0 | 109.6 | 139.4 | 218.9 | 1030 ± 1450 | 77.4 ± 9.14 | 17.9 | 0.17 | 5.9 | 0.84 | 16.7 |  | 
3 | COCCOCCOCCOCCOCCNc1ccc(S(=O)(=O)N(CC(C)C)CC(O)[C@H](Cc2ccccc2)NC(=O)O[C@H]2CO[C@H]3OCC[C@H]32)cc1 (stereo partly shown) [mPEG5-N-Darunavir] |  |  |  |  |  |  |  | 223.5 | 41.3 | 73.2 | 98.5 | 303 ± 366 | 440 ± 19.0 | 3.15 | 8 | 16.7 | 2 | 40 |  | 
4 | COCCOCCOCCOCCOCCOc1ccc(C[C@H](NC(=O)O[C@H]2CO[C@H]3OCC[C@H]32)C(O)CN(CC(C)C)S(=O)(=O)c2ccc(N)cc2)cc1 (stereo partly shown) [mPEG5-O-Darunavir] |  |  |  |  |  |  |  | >400.0 | >400.0 | >400.0 | >400.0 | 263 ± 155 | 198 ± 22.1 | 7.00 | 60 | 56.7 | 60 | 50 |  | 
5 | COCCOCCOCCOCCOCCOCCOCCNc1ccc(S(=O)(=O)N(CC(C)C)CC(O)[C@H](Cc2ccccc2)NC(=O)O[C@H]2CO[C@H]3OCC[C@H]32)cc1 (stereo partly shown) [mPEG7-N-Darunavir] |  |  |  |  |  |  |  | 381.3 |  |  |  | 577 ± 423 | 356 ± 7.74 | 3.89 | 70 | 63.3 | 40 | 80 | 14 nM and 11 nM | 
6 | COCCOC(=O)NC(C(=O)NC(Cc1ccccc1)C(O)CN(Cc1ccc(-c2ccccn2)cc1)NC(=O)C(NC(=O)OC)C(C)(C)C)C(C)(C)C (stereo not shown) [mono-mPEG1-Atazanavir] |  |  |  |  |  |  |  |  |  |  |  | < 20 | 181 ± 0.640 | 7.65 | 0.16 | 0.183 | 0.25 | 0.14 | 2 ± 0.6 nM | 18.3
7 | COCCOCCOCCOCCOCCOC(=O)NC(C(=O)NC(Cc1ccccc1)C(O)CN(Cc1ccc(-c2ccccn2)cc1)NC(=O)C(NC(=O)OC)C(C)(C)C)C(C)(C)C (stereo not shown) [mono-mPEG5-Atazanavir] |  |  |  |  |  |  |  |  |  |  |  | 56.6 ± 12.2 | 108 ± 9.75 | 12.9 | 0.15 | 1.24 | 3.42 | 0.14 | 1 ± 0.6 nM | 22.2
8 | COCCOCCOCCOCCOCCOCCOC(=O)NC(C(=O)NC(Cc1ccccc1)C(O)CN(Cc1ccc(-c2ccccn2)cc1)NC(=O)C(NC(=O)OC)C(C)(C)C)C(C)(C)C (stereo not shown) [mono-mPEG6-Atazanavir] |  |  |  |  |  |  |  |  |  |  |  | 43.3 ± 20.4 | 112 ± 1.10 | 12.3 | 0.16 | 0.2 | 0.21 | 0.23 |  | > 25
